Source: patent publication US20230286958A1, “PLASMA KALLIKREIN INHIBITORS” (Merck Sharp & Dohme LLC, priority 2020, published 2023)

Legend:
Human plasma kallikrein = Human plasma kallikrein (Homo sapiens (Human), UniProt P03952); experiment: Kallikrein Assay (fluorogenic substrate Acetyl-K-P-R-AFC); format: biochemical; details: Plasma Kallikrein (PKal)
Summary of the method: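 Ki is derived from IC50 with the Cheng-Prusoff equation, and IC50 from the inflection point of a four-parameter logistic curve. The rate of AFC release is read with 0.5 nM purified enzyme and […] substrate at room temperature or 37 °C.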

human Factor XIa = human Factor XIa (Homo sapiens (Human), UniProt P03951); experiment: Factor XIa Assay (fluorogenic substrate GPR-AFC); format: biochemical; details: Factor XIa (FXIa)
Sequence of human Factor XIa (P03951 388-625 limits assumed): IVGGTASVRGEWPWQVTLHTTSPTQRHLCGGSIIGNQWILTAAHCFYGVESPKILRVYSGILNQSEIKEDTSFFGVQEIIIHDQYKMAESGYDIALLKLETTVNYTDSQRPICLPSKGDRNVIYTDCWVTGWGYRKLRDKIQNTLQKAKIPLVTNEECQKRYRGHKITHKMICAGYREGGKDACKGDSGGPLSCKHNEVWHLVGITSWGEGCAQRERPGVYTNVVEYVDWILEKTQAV
Sequence of human Factor XIa (P03951 19-387 partner limits assumed): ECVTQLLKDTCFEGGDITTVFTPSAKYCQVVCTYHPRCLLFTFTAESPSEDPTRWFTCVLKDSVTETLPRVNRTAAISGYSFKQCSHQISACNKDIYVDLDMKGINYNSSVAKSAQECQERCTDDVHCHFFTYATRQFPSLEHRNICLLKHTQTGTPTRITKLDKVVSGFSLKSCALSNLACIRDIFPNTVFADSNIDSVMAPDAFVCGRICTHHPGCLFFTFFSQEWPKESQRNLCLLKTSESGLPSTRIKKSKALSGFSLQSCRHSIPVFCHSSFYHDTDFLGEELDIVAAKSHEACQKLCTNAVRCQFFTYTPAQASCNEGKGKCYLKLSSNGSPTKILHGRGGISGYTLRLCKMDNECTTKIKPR

Sequence of Human plasma kallikrein (P03952 391-638): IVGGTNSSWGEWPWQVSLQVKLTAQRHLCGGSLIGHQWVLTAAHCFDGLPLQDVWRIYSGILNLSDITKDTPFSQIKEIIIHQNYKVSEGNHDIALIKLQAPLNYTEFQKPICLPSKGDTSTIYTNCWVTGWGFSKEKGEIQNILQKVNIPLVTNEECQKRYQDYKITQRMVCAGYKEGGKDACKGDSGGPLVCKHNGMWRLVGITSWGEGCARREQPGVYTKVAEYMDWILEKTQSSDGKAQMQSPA
Sequence of Human plasma kallikrein (P03952 20-390 partner): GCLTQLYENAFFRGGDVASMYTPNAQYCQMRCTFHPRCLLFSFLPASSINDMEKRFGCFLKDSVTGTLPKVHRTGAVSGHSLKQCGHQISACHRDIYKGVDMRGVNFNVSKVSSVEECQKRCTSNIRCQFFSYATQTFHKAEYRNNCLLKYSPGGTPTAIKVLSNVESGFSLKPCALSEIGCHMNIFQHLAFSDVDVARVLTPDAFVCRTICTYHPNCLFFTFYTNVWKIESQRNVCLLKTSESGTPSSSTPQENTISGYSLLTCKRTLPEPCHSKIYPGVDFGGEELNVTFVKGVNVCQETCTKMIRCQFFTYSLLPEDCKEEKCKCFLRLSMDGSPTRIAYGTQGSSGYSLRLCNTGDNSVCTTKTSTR

| Structure (SMILES) | IC50 (Human plasma kallikrein) [nM] | IC50 (human Factor XIa) [nM] |
| --- | --- | --- |
| Cc1ncc(-c2c(C#N)ccc(Cl)c2F)nc1C(=O)Nc1cnn(C(C)c2cnc(N3C[C@H]4C[C@H]4C3=O)c(C)n2)c1 (single isomer, unassigned) [Example 235, 6-(3-Chloro-6-cyano-2-fluorophenyl)-3-methyl-N-(1-((S or R)-1-(6-methyl-5-((1R,5S)-2-oxo-3-azabicyclo[3.1.0]hexan-3-yl)pyrazin-2-yl)ethyl)-1H-pyrazol-4-yl)pyrazine-2-carboxamide] | 0.4 | 2060 |
| Cc1cc(C(C)n2cc(NC(=O)c3nc(-c4c(C#N)ccc(Cl)c4F)cnc3C)cn2)nnc1N1C[C@H]2C[C@H]2C1=O (single isomer, unassigned) [Example 236, 6-(3-Chloro-6-cyano-2-fluorophenyl)-3-methyl-N-(1-((R or S)-1-(5-methyl-6-((1R,5S)-2-oxo-3-azabicyclo[3.1.0]hexan-3-yl)pyridazin-3-yl)ethyl)-1H-pyrazol-4-yl)pyrazine-2-carboxamide] | 0.7 | 750 |
| Cc1cc(C(C)n2cc(NC(=O)c3nc(-c4c(C#N)ccc(Cl)c4F)cnc3C)cn2)nnc1N1C[C@H]2C[C@H]2C1=O (single isomer, unassigned) [Example 237, 6-(3-Chloro-6-cyano-2-fluorophenyl)-3-methyl-N-(1-((S or R)-1-(5-methyl-6-((1R,5S)-2-oxo-3-azabicyclo[3.1.0]hexan-3-yl)pyridazin-3-yl)ethyl)-1H-pyrazol-4-yl)pyrazine-2-carboxamide] | 4.3 | 561 |
| CCc1ncc(-c2c(C(F)F)ccc(Cl)c2F)nc1C(=O)Nc1cnn(C(C)c2cc(C)c(N3C[C@H]4C[C@H]4C3=O)nn2)c1 (single isomer, unassigned) [Example 238, 6-(3-Chloro-6-(difluoromethyl)-2-fluorophenyl)-3-ethyl-N-(1-((R or S)-1-(5-methyl-6-((1R,5S)-2-oxo-3-azabicyclo[3.1.0]hexan-3-yl)pyridazin-3-yl)ethyl)-1H-pyrazol-4-yl)pyrazine-2-carboxamide] | 6.3 | 734 |
| CCc1ncc(-c2c(C(F)F)ccc(Cl)c2F)nc1C(=O)Nc1cnn(C(C)c2cc(C)c(N3C[C@H]4C[C@H]4C3=O)nn2)c1 (single isomer, unassigned) [Example 239, 6-(3-Chloro-6-(difluoromethyl)-2-fluorophenyl)-3-ethyl-N-(1-((S or R)-1-(5-methyl-6-((1R,5S)-2-oxo-3-azabicyclo[3.1.0]hexan-3-yl)pyridazin-3-yl)ethyl)-1H-pyrazol-4-yl)pyrazine-2-carboxamide] | 1.8 | 1230 |
| COc1ncc(-c2c(OC(F)F)ccc(Cl)c2F)nc1C(=O)Nc1cnn(C(C)c2cnc(N3C[C@H]4C[C@H]4C3=O)c(C)n2)c1 (single isomer, unassigned) [Example 240, 6-(3-Chloro-6-(difluoromethoxy)-2-fluorophenyl)-3-methoxy-N-(1-((R or S)-1-(6-methyl-5-((1R,5S)-2-oxo-3-azabicyclo[3.1.0]hexan-3-yl)pyrazin-2-yl)ethyl)-1H-pyrazol-4-yl)pyrazine-2-carboxamide] | 0.4 | 985 |
| COc1ncc(-c2c(OC(F)F)ccc(Cl)c2F)nc1C(=O)Nc1cnn(C(C)c2cnc(N3C[C@H]4C[C@H]4C3=O)c(C)n2)c1 (single isomer, unassigned) [Example 241, 6-(3-Chloro-6-(difluoromethoxy)-2-fluorophenyl)-3-methoxy-N-(1-((S or R)-1-(6-methyl-5-((1R,5S)-2-oxo-3-azabicyclo[3.1.0]hexan-3-yl)pyrazin-2-yl)ethyl)-1H-pyrazol-4-yl)pyrazine-2-carboxamide] | 0.7 | 377 |
| Cc1ncc(-c2c(C(F)F)ccc(Cl)c2F)nc1C(=O)Nc1cnn(C(C)c2ncc(N3C[C@H]4C[C@H]4C3=O)c(C)c2C)c1 (single isomer, unassigned) [Example 242, 6-(3-Chloro-6-(difluoromethyl)-2-fluorophenyl)-N-(1-((R or S)-1-(3,4-dimethyl-5-((1R,5S)-2-oxo-3-azabicyclo[3.1.0]hexan-3-yl)pyridin-2-yl)ethyl)-1H-pyrazol-4-yl)-3-methylpyrazine-2-carboxamide] | 0.8 | > 10000 |
| Cc1c(N2C[C@H]3C[C@H]3C2=O)cnc(C(C)n2cc(NC(=O)c3cncc(-c4c(C(F)F)ccc(Cl)c4F)n3)cn2)c1C (single isomer, unassigned) [Example 243, 6-(3-Chloro-6-(difluoromethyl)-2-fluorophenyl)-N-(1-((R or S)-1-(3,4-dimethyl-5-((1R,5S)-2-oxo-3-azabicyclo[3.1.0]hexan-3-yl)pyridin-2-yl)ethyl)-1H-pyrazol-4-yl)pyrazine-2-carboxamide] | 0.6 | > 10000 |
| Cc1ncc(-c2c(C(F)F)ccc(Cl)c2F)nc1C(=O)Nc1cnn(C(C)c2ncc(N3C[C@H]4C[C@H]4C3=O)c(C)c2F)c1 (single isomer, unassigned) [Example 244, 6-(3-Chloro-6-(difluoromethyl)-2-fluorophenyl)-N-(1-((R or S)-1-(3-fluoro-4-methyl-5-((1R,5S)-2-oxo-3-azabicyclo[3.1.0]hexan-3-yl)pyridin-2-yl)ethyl)-1H-pyrazol-4-yl)-3-methylpyrazine-2-carboxamide] | 46.8 | > 10000 |
| Cc1ncc(-c2c(C(F)F)ccc(Cl)c2F)nc1C(=O)Nc1cnn(C(C)c2ncc(N3C[C@H]4C[C@H]4C3=O)c(C)c2F)c1 (single isomer, unassigned) [Example 245, 6-(3-Chloro-6-(difluoromethyl)-2-fluorophenyl)-N-(1-((S or R)-1-(3-fluoro-4-methyl-5-((1R,5S)-2-oxo-3-azabicyclo[3.1.0]hexan-3-yl)pyridin-2-yl)ethyl)-1H-pyrazol-4-yl)-3-methylpyrazine-2-carboxamide] | 0.9 | > 10000 |

More lines, now with the values ahead:

| IC50 (Human plasma kallikrein) [nM] | IC50 (human Factor XIa) [nM] | Structure (SMILES) |
| --- | --- | --- |
| 6 | 6560 | Cc1ncc(-c2c(C(F)F)ccc(Cl)c2F)nc1C(=O)Nc1cnn(C(C)c2cnc(N3C[C@H]4C[C@H]4C3=O)c3c2OC(F)(F)O3)c1 (single isomer, unassigned) [Example 246, 6-(3-Chloro-6-(difluoromethyl)-2-fluorophenyl)-N-(1-((R or S)-1-(2,2-difluoro-4-((1R,5S)-2-oxo-3-azabicyclo[3.1.0]hexan-3-yl)-[1,3]dioxolo[4,5-c]pyridin-7-yl)ethyl)-1H-pyrazol-4-yl)-3-methylpyrazine-2-carboxamide] |
| 0.8 | 9240 | Cc1ncc(-c2c(C(F)F)ccc(Cl)c2F)nc1C(=O)Nc1cnn(C(C)c2cnc(N3C[C@H]4C[C@H]4C3=O)c3c2OC(F)(F)O3)c1 (single isomer, unassigned) [Example 247, 6-(3-Chloro-6-(difluoromethyl)-2-fluorophenyl)-N-(1-((S or R)-1-(2,2-difluoro-4-((1R,5S)-2-oxo-3-azabicyclo[3.1.0]hexan-3-yl)-[1,3]dioxolo[4,5-c]pyridin-7-yl)ethyl)-1H-pyrazol-4-yl)-3-methylpyrazine-2-carboxamide] |
| 22.3 | > 10000 | CC(c1cnc(N2C[C@H]3C[C@H]3C2=O)c2c1OC(F)(F)O2)n1cc(NC(=O)c2cncc(-c3c(C(F)F)ccc(Cl)c3F)n2)cn1 (single isomer, unassigned) [Example 248, 6-(3-Chloro-6-(difluoromethyl)-2-fluorophenyl)-N-(1-((R or S)-1-(2,2-difluoro-4-((1R,5S)-2-oxo-3-azabicyclo[3.1.0]hexan-3-yl)-[1,3]dioxolo[4,5-c]pyridin-7-yl)ethyl)-1H-pyrazol-4-yl)pyrazine-2-carboxamide] |
| 2.1 | > 10000 | CC(c1cnc(N2C[C@H]3C[C@H]3C2=O)c2c1OC(F)(F)O2)n1cc(NC(=O)c2cncc(-c3c(C(F)F)ccc(Cl)c3F)n2)cn1 (single isomer, unassigned) [Example 249, 6-(3-Chloro-6-(difluoromethyl)-2-fluorophenyl)-N-(1-((S or R)-1-(2,2-difluoro-4-((1R,5S)-2-oxo-3-azabicyclo[3.1.0]hexan-3-yl)-[1,3]dioxolo[4,5-c]pyridin-7-yl)ethyl)-1H-pyrazol-4-yl)pyrazine-2-carboxamide] |
| 3.2 | 1320 | CC(c1cnc(N2C[C@H]3C[C@H]3C2=O)c2c1OCO2)n1cc(NC(=O)c2cncc(-c3c(C(F)F)ccc(Cl)c3F)n2)cn1 (single isomer, unassigned) [Example 250, 6-(3-Chloro-6-(difluoromethyl)-2-fluorophenyl)-N-(1-((R or S)-1-(4-((1R,5S)-2-oxo-3-azabicyclo[3.1.0]hexan-3-yl)-[1,3]dioxolo[4,5-c]pyridin-7-yl)ethyl)-1H-pyrazol-4-yl)pyrazine-2-carboxamide] |
| 1 | 2480 | CC(c1cnc(N2C[C@H]3C[C@H]3C2=O)c2c1OCO2)n1cc(NC(=O)c2cncc(-c3c(C(F)F)ccc(Cl)c3F)n2)cn1 (single isomer, unassigned) [Example 251, 6-(3-Chloro-6-(difluoromethyl)-2-fluorophenyl)-N-(1-((R or S)-1-(4-((1R,5S)-2-oxo-3-azabicyclo[3.1.0]hexan-3-yl)-[1,3]dioxolo[4,5-c]pyridin-7-yl)ethyl)-1H-pyrazol-4-yl)pyrazine-2-carboxamide] |
| 0.9 | 1830 | Cc1ncc(-c2c(C(F)F)ccc(Cl)c2F)nc1C(=O)Nc1cnn(C(C)c2cnc(N3C[C@H]4C[C@H]4C3=O)c3c2OCO3)c1 (single isomer, unassigned) [Example 252, 6-(3-Chloro-6-(difluoromethyl)-2-fluorophenyl)-3-methyl-N-(1-((R or S)-1-(4-((1R,5S)-2-oxo-3-azabicyclo[3.1.0]hexan-3-yl)-[1,3]dioxolo[4,5-c]pyridin-7-yl)ethyl)-1H-pyrazol-4-yl)pyrazine-2-carboxamide] |
